Assay results reported in patent US20140249084A1, “PTH-CONTAINING THERAPEUTIC/PROPHYLACTIC AGENT FOR OSTEOPOROSIS, CHARACTERIZED IN THAT PTH IS ADMINISTERED ONCE A WEEK IN A UNIT DOSE OF 100 TO 200 UNITS” (ASAHI KASEI PHARMA CORPORATION, priority 2009, published 2014).
Structures can show the parent of a compound that is named as a salt.

How the values were obtained:
[1] = system: nausea and vomiting associated with administration of the test drug; experiment: Prescriptions for nausea and vomiting associated with administration of the test drug; format: in vivo, human; details: summary of Table 18
Description: The administration period and efficacy of various drugs to treat nausea and vomiting associated with administration of the test drug were studied.

[2] = 20 μg/day, Non-patent Reference 1, cited from earlier work
[3] = conventional daily administration; osteoporosis patients having moderate renal dysfunction; Non-patent Reference 32; cited from earlier work
[4] = system: patients having prednisone-induced osteoporosis complicated by arthralgia; details: daily administration, Non-patent References 23 and 24; cited from earlier work

Compound	Effect on nausea and vomiting associated with administration of the test drug (summary) [1]	also measured
Cc1c(OCC(F)(F)F)ccnc1C[S+]([O-])c1nc2ccccc2[nH]1 (stereo not drawn) [Takepron OD, lansoprazole]	effective	–
NC(N)=Nc1nc(CSCCC(N)=NS(N)(=O)=O)cs1 [Gaster D, famotidine]	effective	–
CCN(CC)CCNC(=O)c1cc(Cl)c(N)cc1OC [Primperan, metoclopramide]	effective	–
CCOc1cc(N)c(Cl)cc1C(=O)NCC1CN(Cc2ccc(F)cc2)CCO1 (stereo not drawn) [Gasmotin, mosapride citrate]	effective	–
O=c1[nH]c2ccccc2n1CCCN1CCC(n2c(=O)[nH]c3cc(Cl)ccc32)CC1 [Nauzelin, domperidone]	effective	–
PTH: PTH (parathyroid hormone) in conventional daily administration (20 μg/day), results from cited literature	–	Patients with persistent hypercalcemia [2]: 3%; Patients with hypercalcemia ([2]; blood samples 4 to 6 hours after administration): 11%; Patients with serum calcium exceeding 11.0 mg/mL after administration [3]: 11.76%
CC[C@H](C)[C@H](NC(=O)[C@H](CCC(=O)O)NC(=O)[C@H](CO)NC(=O)[C@@H](NC(=O)[C@@H](N)CO)C(C)C)C(=O)N[C@@H](CCC(N)=O)C(=O)N[C@@H](CC(C)C)C(=O)N[C@@H](CCSC)C(=O)N[C@@H](Cc1cnc[nH]1)C(=O)N[C@@H](CC(N)=O)C(=O)N[C@@H](CC(C)C)C(=O)NCC(=O)N[C@@H](CCCCN)C(=O)N[C@@H](Cc1cnc[nH]1)C(=O)N[C@@H](CC(C)C)C(=O)N[C@@H](CC(N)=O)C(=O)N[C@@H](CO)C(=O)N[C@@H](CCSC)C(=O)N[C@@H](CCC(=O)O)C(=O)N[C@@H](CCCN=C(N)N)C(=O)N[C@H](C(=O)N[C@@H](CCC(=O)O)C(=O)N[C@@H](Cc1c[nH]c2ccccc12)C(=O)N[C@@H](CC(C)C)C(=O)N[C@@H](CCCN=C(N)N)C(=O)N[C@@H](CCCCN)C(=O)N[C@@H](CCCCN)C(=O)N[C@@H](CC(C)C)C(=O)N[C@@H](CCC(N)=O)C(=O)N[C@@H](CC(=O)O)C(=O)N[C@H](C(=O)N[C@@H](Cc1cnc[nH]1)C(=O)N[C@@H](CC(N)=O)C(=O)N[C@@H](Cc1ccccc1)C(=O)O)C(C)C)C(C)C [Forteo, teriparatide (rDNA origin) injection]	–	Bone strengthening effect compared with Fosamax [4]: stronger bone strengthening effect than Fosamax
